How the values were obtained:
Assay in all cases: relative viability (nuclei count vs DMSO), 5 days (fraction); higher = more cells survive
Neratinib + Linsitinib = compound: CCOc1cc2ncc(C#N)c(Nc3ccc(OCc4ccccn4)c(Cl)c3)c2cc1NC(=O)/C=C/CN(C)C [Neratinib] + C[C@]1(O)C[C@@H](c2nc(-c3ccc4ccc(-c5ccccc5)nc4c3)c3c(N)nccn32)C1 [Linsitinib] (partner 1 µM)
Outline: (§1)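 Lung cancer cell lines in 1536-well plates were dosed by pin tool the day after seeding, either with one drug alone or with a fixed anchor-drug dose plus five library-drug doses (not always all listed) in √10 steps. After 5 days, cells were fixed and their nuclei stained in one step (final 0.05% Triton X-100, 1% formaldehyde, 1 ug/ml Hoechst), then counted on 4× images. Relative viability is the nuclei count in treated wells divided by that in vehicle wells. Values are medians of duplicate plates.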

Neratinib + Vorinostat = compound: CCOc1cc2ncc(C#N)c(Nc3ccc(OCc4ccccn4)c(Cl)c3)c2cc1NC(=O)/C=C/CN(C)C [Neratinib] + O=C(CCCCCCC(=O)Nc1ccccc1)NO [Vorinostat] (partner 1 µM)
Outline: as §1

Neratinib + Pemetrexed = compound: CCOc1cc2ncc(C#N)c(Nc3ccc(OCc4ccccn4)c(Cl)c3)c2cc1NC(=O)/C=C/CN(C)C [Neratinib] + Nc1nc2[nH]cc(CCc3ccc(C(=O)N[C@@H](CCC(=O)O)C(=O)O)cc3)c2c(=O)[nH]1 [Pemetrexed] (partner 0.2 µM)
Outline: as §1

Neratinib + Navitoclax = compound: CCOc1cc2ncc(C#N)c(Nc3ccc(OCc4ccccn4)c(Cl)c3)c2cc1NC(=O)/C=C/CN(C)C [Neratinib] + CC1(C)CCC(c2ccc(Cl)cc2)=C(CN2CCN(c3ccc(C(=O)NS(=O)(=O)c4ccc(N[C@H](CCN5CCOCC5)CSc5ccccc5)c(S(=O)(=O)C(F)(F)F)c4)cc3)CC2)C1 [Navitoclax] (partner 0.5 µM)
Outline: as §1

Row | Cell Line | relative viability (Neratinib + Linsitinib; first compound 0.01 µM) | relative viability (Neratinib + Linsitinib; first compound 0.03162 µM) | relative viability (Neratinib + Linsitinib; first compound 0.1 µM) | relative viability (Neratinib + Linsitinib; first compound 1 µM) | relative viability (Neratinib + Vorinostat; first compound 0.01 µM) | relative viability (Neratinib + Vorinostat; first compound 0.03162 µM) | relative viability (Neratinib + Vorinostat; first compound 0.1 µM) | relative viability (Neratinib + Vorinostat; first compound 0.3162 µM) | relative viability (Neratinib + Vorinostat; first compound 1 µM) | relative viability (Neratinib + Pemetrexed; first compound 0.01 µM) | relative viability (Neratinib + Pemetrexed; first compound 0.03162 µM) | relative viability (Neratinib + Pemetrexed; first compound 0.1 µM) | relative viability (Neratinib + Pemetrexed; first compound 0.3162 µM) | relative viability (Neratinib + Pemetrexed; first compound 1 µM) | relative viability (Neratinib + Navitoclax; first compound 0.01 µM) | relative viability (Neratinib + Navitoclax; first compound 0.03162 µM) | relative viability (Neratinib + Navitoclax; first compound 0.1 µM) | relative viability (Neratinib + Navitoclax; first compound 0.3162 µM) | relative viability (Neratinib + Navitoclax; first compound 1 µM) | relative viability (Neratinib + Linsitinib; first compound 0.3162 µM)
1 | HCC-44 | 0.724 | 0.697 | 0.641 | 0.691 | 1.11 | 1.09 | 1.12 | 1.1 | 1.09 | 0.63 | 0.686 | 0.635 | 0.648 | 0.671 | 1.1 | 0.978 | 0.867 | 0.951 | 0.917 | –
2 | HCC-78 | 0.543 | 0.665 | 0.483 | 0.241 | 0.547 | 0.408 | 0.352 | 0.362 | 0.28 | 0.889 | 0.925 | 0.883 | 0.898 | 0.885 | 0.747 | – | 0.702 | 0.663 | 0.231 | 0.338
3 | HCC-366 | 0.736 | 0.734 | – | 0.614 | 0.337 | 0.408 | 0.345 | 0.381 | 0.312 | 0.202 | 0.147 | 0.158 | 0.14 | 0.171 | 1.08 | – | 0.975 | 1.11 | 1.02 | 0.759
4 | HCC-827 | 1 | 0.971 | 0.933 | 0.221 | 0.929 | 0.975 | 0.817 | 0.395 | 0.205 | 0.273 | 0.271 | 0.191 | 0.153 | 0.13 | 1.02 | 1.09 | 1 | 0.924 | 0.201 | 0.931
5 | IA-LM | 0.537 | 0.87 | 0.581 | 0.628 | 0.983 | 1 | – | 0.924 | 0.715 | – | – | – | – | – | 0.814 | 0.774 | – | 0.65 | 0.494 | 0.541
6 | LCLC-103H | 1.21 | 0.975 | – | 0.814 | – | 0.822 | 0.72 | 0.796 | 0.775 | 0.509 | 0.489 | 0.445 | 0.488 | 0.484 | – | – | – | – | – | 0.961
7 | NCI-H358 | – | – | 0.264 | 0.205 | 0.659 | 0.538 | 0.282 | 0.148 | 0.106 | 0.172 | 0.161 | 0.168 | 0.133 | 0.153 | – | – | – | – | – | 0.26
8 | NCI-H522 | – | – | – | – | 1.04 | 1.01 | 0.678 | 0.718 | 0.626 | 1 | 0.943 | 0.72 | 0.673 | 0.657 | – | – | – | – | – | –
9 | NCI-H650 | 1 | 0.986 | 1.03 | 0.577 | 0.406 | 0.399 | 0.451 | 0.403 | 0.367 | 0.98 | 1.11 | 0.932 | 0.831 | 0.773 | – | – | – | – | – | –
10 | NCI-H661 | 0.621 | 0.536 | 0.499 | 0.197 | 0.866 | 0.729 | 0.583 | 0.657 | 0.445 | 0.951 | 0.947 | 0.595 | 0.704 | 0.537 | – | – | – | – | – | 0.299
11 | NCI-H727 | 0.244 | 0.282 | – | 0.255 | 1.05 | 1.1 | – | 1.11 | 0.899 | – | – | – | – | – | 0.446 | 0.443 | – | 0.4 | 0.267 | 0.286
12 | NCI-H1563 | 1.22 | 1.24 | 0.993 | 0.998 | – | – | – | – | – | 0.812 | 0.924 | 0.739 | 0.747 | 0.582 | – | – | – | – | – | 1.1
13 | NCI-H1648 | – | – | – | – | 0.328 | 0.427 | 0.283 | 0.304 | 0.368 | 0.836 | 0.799 | 0.663 | 0.685 | 0.55 | – | – | – | – | – | –
14 | NCI-H1650 | – | – | – | – | 0.381 | 0.615 | 0.49 | 0.419 | 0.447 | 0.381 | 0.348 | 0.31 | 0.314 | 0.325 | 1.26 | 1.35 | 1.1 | 1.07 | 1.06 | –
15 | NCI-H1703 | 0.636 | 0.641 | 0.659 | 0.509 | – | – | – | – | – | – | – | – | – | – | 1.46 | 0.921 | 0.929 | 0.884 | 0.286 | 0.516
16 | NCI-H1792 | 0.505 | 0.468 | 0.53 | 0.463 | – | – | – | – | – | 0.826 | 1.16 | 0.716 | 0.812 | 0.538 | 0.622 | 0.833 | 0.612 | – | 0.591 | 0.489
17 | NCI-H2170 | – | – | – | – | 0.862 | 0.647 | 0.407 | 0.205 | 0.239 | 0.275 | 0.261 | 0.237 | 0.203 | 0.196 | 0.391 | 0.377 | 0.274 | 0.196 | 0.184 | –
18 | NCI-H2342 | – | – | – | – | 0.797 | 0.88 | 0.647 | 0.585 | 0.54 | 0.722 | 0.774 | 0.714 | 0.564 | 0.497 | – | – | – | – | – | –
19 | SW 900 | – | – | – | – | 0.414 | 0.738 | 0.473 | 0.451 | 0.506 | 0.514 | 0.473 | 0.426 | 0.454 | 0.371 | – | – | – | – | – | –
